The assay relates to CEM cells HIV-1 protection, formazan growth assay. Briefly: NCI AIDS Antiviral Assay. As to conditions: for pIC50: measured here: growth of uninfected CEM cells. The method in brief:
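Five concentrations of each compound were applied to infected and uninfected human CEM cells. Protection from HIV-1 was judged from growth measured with a soluble formazan assay.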

Consider 54 molecules from PubChem BioAssay AID179 (DTP/NCI, 2004).

pEC50, pIC50: −log10 of the molar value. Activity calls are given as the source filed them.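 How the source made its calls: active means compounds giving half or more protection of infected cells from virus-caused growth loss, again on retest; inactive means the rest.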 Where a SMILES comes first, the peptide text is derived from it. The star is where a group is joined. ONp = O=[N+]([O-])c1ccc(O*)cc1; Cbz = O=C(OCc1ccccc1)*; OBn = c1ccc(CO*)cc1

A word on the pEC50: it is the EC50 on a negative log10 scale, so that one unit is a factor of ten. As usually defined, the pIC50 is the IC50 on a negative log10 scale, so that one unit is a factor of ten. A low value points to a high IC50. Take `C=C1OC(=O)/C(=C/CCCCCCCCCCCCCCCCC)[C@@H]1O`: the pEC50 is < 4.56 and the pIC50 is < 4.56.

As for `CC(C)(C)C1=CC(C)(n2[nH]c(=O)n(-c3ccccc3)c2=O)C=C(C(C)(C)C)C1=O`, the pEC50 is < 3.70 and the pIC50 was 4.01.

Take `NCCCCN(CCCN)Cc1ccc2ccccc2c1`: the pEC50 is < 3.70 and the pIC50 is 4.14.

With `N#Cc1nc(NC(=O)c2ccccc2C(=O)O)c(C#N)[nH]1`, the pEC50 was < 3.70 and the pIC50 was < 3.70.

As for `CC(=N\N=C(N)N)/C(N=Nc1ccc(S(N)(=O)=O)cc1)=N\N=C(N)N`, the pEC50 is < 3.70 and the negative-log IC50 (pIC50) is 5.80.

Regarding `COc1cc(C(=O)Oc2c(C#N)sc3c2c(=O)n(-c2ccccc2)c(=S)n3-c2ccccc2)cc(OC)c1OC`, the pEC50 was < 3.70 and the negative logarithm of the IC50 (pIC50) was 6.21.

With `CCN(CC)CCNC(=O)c1nn(-c2ccc(C)cc2)c2c1N(C)S(=O)(=O)c1ccccc1-2`, the pEC50 is < 4.11 and the pIC50 is 4.25.

Regarding `C=C(CS(=O)(=O)c1ccccc1)C(=O)OCC`, the outcome was inactive.

Regarding `COC(=O)C1CC2C=CC=CC(=O)C2(C)C1` (centres undefined), the pEC50 is < 3.60 and the pIC50 is 4.48.

Turning to `CCN(CC)CCn1c2c3ccccc3ccc2c2oc(=O)c3ccccc3c21`, the pEC50 was < 4.79 and the pIC50 was < 4.79.

As for `COS(=O)(=O)OCCC(NC(=O)OCc1ccccc1)C(=O)OCc1ccccc1` (centres undefined), the pEC50 is < 4.08 and the negative-log IC50 (pIC50) was < 4.08.

As for `O=C(CNC(=O)C(CCC(=O)OCc1ccccc1)NC(=O)OCc1ccccc1)NCC(=O)NC(CO)C(=O)NCC(=O)Oc1ccc([N+](=O)[O-])cc1` (centres undefined) (Cbz-E(OBn)GGSG-ONp; configuration not given here), the pEC50 is < 4.04 and the pIC50 is < 4.04.

For `S=c1[nH]nc2n1NC(c1ccccc1)=NN2`, the pEC50 is < 3.53 and the pIC50 was < 3.53.

Take `N#C/C=C\c1cccc(C#N)c1`: the pEC50 is < 4.33 and the pIC50 was < 4.33.

Consider `Cc1nc2ccccc2c(C(=O)NO)[n+]1[O-]`, for which the pEC50 was < 3.70 and the pIC50 is < 3.70.

`O=C(NC(=S)Nc1ccccn1)c1ccccc1`: the pEC50 was < 3.70 and the pIC50 is 3.87.

For the molecule `CC1=CCC[C@@]2(C)C(CC[C@@H]2C(C)/C=C/C(C)C)c2ccc(cc2C(=O)O)C[C@@H](O)CC1` (some centres undefined), the outcome was inactive.

For the molecule `COc1ccc2c3c(cnc2c1)P(C)(=O)CC3` (centres undefined), the result was inactive.

Regarding `C[C@]12CCC(=O)C=C1CC[C@@H]1C2CC[C@@]2(C)C1CC[C@@H]2OC(=O)C12OC1CCC2=O` (some centres undefined), the pEC50 was < 3.70 and the pIC50 was 4.97.

With `N=C(N)C1CN(CCc2c[nH]c3ccccc23)C(=O)NC1=O` (centres undefined), the pEC50 was < 3.70 and the negative logarithm of the IC50 (pIC50) was < 3.70.

For `Cc1ccc(-c2cc(=S)ss2)cc1`, the pEC50 was < 3.70 and the pIC50 was 3.78.

On to `CCCCCCCCCOC(=S)NC`, for which the outcome was inactive.

On to `Cc1cc2c(c(C=NCc3ccccc3)c1)OC1(C=C2)Oc2ccccc2C(=O)N1C` (centres undefined), for which the pEC50 was < 3.70 and the pIC50 was 4.28.

With `CCC1(OC(=O)CN)C(=O)OCc2c1cc1n(c2=O)Cc2cc3ccccc3nc2-1` (centres undefined), the pEC50 is < 5.00 and the pIC50 is 8.16.

As to `CC(=O)Nc1cc(S(=O)(=O)O)cc2cc(S(=O)(=O)O)cc(O)c12`, the pEC50 is < 3.70 and the pIC50 is < 3.70.

For `N#CC12C3C4C5C3C1n1c(=O)n(-c3ccccc3)c(=O)n1C5C42` (centres undefined), the pEC50 is < 3.70 and the pIC50 is < 3.70.

For `N/N=C(\CC1OC(=O)c2ccccc21)c1ccco1` (centres undefined), the pEC50 is < 3.01 and the pIC50 was 3.21.

As for `COc1cc(-c2nn3c(=O)n(-c4ccc(Cl)cc4)c(=O)nc3s2)cc(OC)c1OC`, the pEC50 is < 6.09 and the pIC50 was < 6.09.

Consider `Clc1cc(Cl)cc(C2SCc3nc4ccccc4n32)c1` (centres undefined), for which the result was inactive.

Take `Cc1cc(-c2ccc(Cl)cc2)c(C#N)c(=S)n1C1OC(CO)C(O)C(O)C1O` (centres undefined): the pEC50 is < 3.70 and the pIC50 was < 3.70.

Consider `CSC(=S)c1ccc(C(=S)SC)cc1`, for which the outcome was inactive.

Regarding `O=C1C=CC2(C=C1)CCC(=O)O2`, the pEC50 was 5.53 and the pIC50 is 3.80.

As for `Clc1ccc(C(SCc2ccccc2)SCc2ccccc2)cc1`, the pEC50 was < 3.70 and the pIC50 was < 3.70.

With `CCCCCCCCCCOCC(COCCOCC(COCCCCCCCCCC)OCCCS(=O)(=O)O)OCCCS(=O)(=O)O` (centres undefined), the pEC50 is < 3.69 and the negative-log IC50 (pIC50) was 3.97.

In the case of `O=C(n1[nH]c(=O)n(-c2ccc([N+](=O)[O-])cc2)c1=O)C(Cl)(Cl)Cl`, the pEC50 is < 3.70 and the pIC50 was < 3.70.

`CCOC(=O)C(=O)Nc1nc2ccc(OC)cc2s1`: the pEC50 was < 3.35 and the pIC50 was < 3.35.

On to `C#CCCOC(=O)CC1=C(C)/C(=C/c2ccc(S(C)=O)cc2)c2ccc(F)cc21` (centres undefined), for which the pEC50 is < 3.70 and the pIC50 is 4.83.

For the molecule `C[C@]12CC[C@@H]3c4cc(OCC(F)(F)F)c(O)cc4/C(=N/O)C[C@H]3[C@@H]1CC[C@@H]2O`, the pEC50 was < 6.70 and the pIC50 was 7.03.

On to `COc1cc(C2C(Cl)C(=O)N2n2cnc3ccccc3c2=O)cc(OC)c1OC` (centres undefined), for which the pEC50 was < 5.18 and the pIC50 is < 5.18.

As for `N/C(=N/N=C\c1nccc2ccccc12)NO`, the result was inactive.

For `O=C(O)c1n[nH]nc1Cl`, the pEC50 was < 3.70 and the pIC50 is < 3.70.

Turning to `CC(C(=O)O)c1ccc2c(c1)Cc1ccccc1-2` (centres undefined), the pEC50 is < 3.70 and the pIC50 is < 3.70.

On to `COc1ccc(/C=C(\C)C=O)cc1`, for which the pEC50 was < 3.69 and the pIC50 is < 3.69.

Consider `CC(O)C(O)C(O)C(O)c1nc2ccccc2[nH]1` (centres undefined), for which the outcome was inactive.

`CCOc1cc(C2=NNc3n[nH]c(=S)n3N2)ccc1O`: the pEC50 was 3.82 and the negative-log IC50 (pIC50) was 3.48.

With `CCCCCCCN=c1ssc(=O)n1CCCCCCC`, the pEC50 is < 3.70 and the pIC50 was 5.05.

`CC[C@@H]1C[C@H]2CC3c4[nH]c5ccc(O)cc5c4CCN(C2)C31`: the pEC50 was < 3.43 and the pIC50 is 4.03.

Take `CCC[N+](C)(C)CCCNC(=O)c1c(O)c2ccccc2[nH]c1=O`: the pEC50 was 3.75 and the pIC50 was 3.74.

Turning to `Cc1cn(C2C=CC(CO)(C(F)(F)F)O2)c(=O)[nH]c1=O` (centres undefined), the pEC50 is < 3.70 and the pIC50 was < 3.70.

For the molecule `O=C(O)C12C3C4(C(=O)O)C1C1(C(=O)O)C2C3(C(=O)O)C41` (centres undefined), the pEC50 was < 3.70 and the pIC50 is < 3.70.

As to `COC(=O)c1cc2ccccc2c(=O)s1`, the pEC50 was < 4.79 and the negative logarithm of the IC50 (pIC50) is < 4.79.

Consider `O=c1nc(NC(c2ccccc2)(c2ccccc2)c2ccccc2)ccn1CCNCCn1ccc(NC(c2ccccc2)(c2ccccc2)c2ccccc2)nc1=O`, for which the pEC50 is < 5.03 and the pIC50 is < 5.03.

`O=c1ccc2ccccc2n1O`: the pEC50 was < 3.70 and the pIC50 was < 3.70.

`CSC1=NN(C(C)=O)C(C(OC(C)=O)C(OC(C)=O)C(OC(C)=O)C(COC(C)=O)OC(C)=O)S1` (centres undefined): the result was inactive.
